# “Also recorded” adds a separate entry of the source. Where two headings read alike, the source gives them in different places.
# How the values were obtained:
# [1] = tested on: pentylenetetrazole convulsions in Tuck No. 1 mice; conditions: cited from earlier work
# [2] = tested on: convulsions induced by tryptamine in mice; conditions: Table 6 of Ito; cited from earlier work
# [3] = tested on: picrotoxin-induced seizures in male NSA mice; experiment: animal or person; type: in vivo; conditions: for anti-convulsant activity against picrotoxin-induced seizures (conclusion): NSA mice; for ED50: Mus musculus; for ED50 / ED50 (95% confidence limit): i.p. 15 minutes prior to picrotoxin 5 mg/kg s.c.
# Description: Anticonvulsant activity against picrotoxin-induced seizures is considered evidence of clinical antiepileptic potential and reason for further evaluation of a test compound's anticonvulsant profile (Swinyard, E. A. et al., General principles: experimental detection, quantification and evaluation of anticonvulsants. In: Antiepileptic Drugs, D. M. Woodbury et al., eds. Raven Press, New York (1990) pp. 111–126).
# Picrotoxin (5 mg/kg, Sigma Chem. Co., St. Louis, Mo., USA) was dissolved in saline and administered subcutaneously to induce seizures. In addition, picrotoxin alone was administered to seven animals as a control. All test drugs were dissolved in dimethylsulfoxide (DMSO).
# After picrotoxin injection, mice were placed into a plexiglass cage for 30 minutes of observation. The appearance of seizures was defined as the presence of a single episode of clonic or tonic activity (including myoclonic jerks) during the 30 minute observation period. […] Animals were euthanized immediately after the observation period by CO2 inhalation. The ED50 (the dose of test compound at which half of the animals were protected against picrotoxin-induced seizures) values and their 95% confidence limits were calculated by the method of Litchfield and Wilcoxon (J. Pharmacol. Exp. Ther. 96:99–113 (1949)).
# [4] = tested on: convulsions induced by the compound Ro 5-4864 in mice; conditions: 100 mg/kg; cited from earlier work
# [5] = tested on: picrotoxin convulsions in Tuck No. 1 mice; conditions: cited from earlier work
# [6] = Example 2, enantiomers of Example 1, 30 minute observation
# [7] = Example 4, enantiomers of Example 3
SMILES,"effect as an anti-convulsant ([1]; 10–25 mg/kg, 60 mg/kg of pentylenetetrazole)",effect in combination with 30 mg/kg pentylenetetrazole ([1]; 25–50 mg/kg),incidence of convulsions [2],anti-convulsant activity against picrotoxin-induced seizures (conclusion) ([3]; Example 2),anti-convulsant activity (conclusion) ([3]; Example 4),"ED50 ([3]; read-out: ED50 (95% confidence limit), Example 2, enantiomers of Example 1, 30 minute observation) [mg/kg]","ED50 ([3]; read-out: ED50 (95% confidence limit), Example 4, enantiomers of Example 3) [mg/kg]",myoclonic jerks in treated mice [4],number of mice having convulsions [4],"number or severity of convulsions ([5]; 10–50 mg/kg, 6 mg/kg of picrotoxin)",effect in combination with 3 mg/kg picrotoxin ([5]; 25–50 mg/kg),"inhibition of picrotoxin-induced convulsions ([3]; Example 2, at either 20 or 50 mg/kg i.p.)","ED50 (95% confidence limit) [3, 6]","protection against picrotoxin-induced seizures ([3]; Example 4, 90 mg/kg)","protection against picrotoxin-induced seizures ([3]; Example 4, 128 mg/kg)","protection from picrotoxin-induced seizures, all doses tested ([3]; Example 4, 32-128 mg/kg) [%]","anticonvulsant activity ([3]; Example 4, doses of 32 mg/kg and 64 mg/kg)","ED50 (95% confidence limit) [3, 7]","protection against picrotoxin-induced seizures ([3]; Example 2, 40 mg/kg i.p.)","anti-convulsant activity compared with the racemate ([3]; Example 4, highly pure S-tofisopam)"
"CCC1C(C)=NN=C(c2ccc(OC)c(OC)c2)c2cc(OC)c(OC)cc21 (racemic) [tofisopam, 1-(3,4-dimethoxy-phenyl)-4-methyl-5-ethyl-7,8-dimethoxy-5H-2,3-benzodiazepine]",no effect,proconvulsant activity,no effect,intrinsic anti-convulsant activity,intrinsic anti-convulsant activity,37.8,51.4,all of the treated mice still experienced myoclonic jerks,reduced the number of mice having convulsions,no affect,proconvulsant activity,–,–,–,–,–,–,–,–,–
CC[C@H]1C(C)=NN=C(c2ccc(OC)c(OC)c2)c2cc(OC)c(OC)cc21 [R-tofisopam],–,–,–,no anti-convulsant activity,–,–,–,–,–,–,–,did not inhibit,Inactive,no further increase in protection,no protection,< 50,exhibits anticonvulsant activity,could not be calculated; also recorded: not calculable,–,–
CC[C@@H]1C(C)=NN=C(c2ccc(OC)c(OC)c2)c2cc(OC)c(OC)cc21 [S-tofisopam],–,–,–,intrinsic anti-convulsant activity,intrinsic anti-convulsant activity,–,–,–,–,–,–,–,~35 (28–43) mg/kg,–,–,–,–,15.1 (7.6–30.1) mg/kg,over 60%,significantly greater anti-convulsant activity

# From US7078398B2, “Compositions and methods for treating or preventing convulsions or seizures” (Vela Pharamaceuticals, Inc., priority 2001, dated 2006)
